# Measured values from patent US10519152B2, “Compounds and their use in treating cancer” (AstraZeneca AB, priority 2017, dated 2019).
# Target: T1, Estrogen Receptor (ERα) in MCF-7 human ductal carcinoma breast cell line (Homo sapiens, UniProt P03372)
# T1 construct: endogenous in cells; host or cells: MCF-7
# T1 sequence (P03372 1-595): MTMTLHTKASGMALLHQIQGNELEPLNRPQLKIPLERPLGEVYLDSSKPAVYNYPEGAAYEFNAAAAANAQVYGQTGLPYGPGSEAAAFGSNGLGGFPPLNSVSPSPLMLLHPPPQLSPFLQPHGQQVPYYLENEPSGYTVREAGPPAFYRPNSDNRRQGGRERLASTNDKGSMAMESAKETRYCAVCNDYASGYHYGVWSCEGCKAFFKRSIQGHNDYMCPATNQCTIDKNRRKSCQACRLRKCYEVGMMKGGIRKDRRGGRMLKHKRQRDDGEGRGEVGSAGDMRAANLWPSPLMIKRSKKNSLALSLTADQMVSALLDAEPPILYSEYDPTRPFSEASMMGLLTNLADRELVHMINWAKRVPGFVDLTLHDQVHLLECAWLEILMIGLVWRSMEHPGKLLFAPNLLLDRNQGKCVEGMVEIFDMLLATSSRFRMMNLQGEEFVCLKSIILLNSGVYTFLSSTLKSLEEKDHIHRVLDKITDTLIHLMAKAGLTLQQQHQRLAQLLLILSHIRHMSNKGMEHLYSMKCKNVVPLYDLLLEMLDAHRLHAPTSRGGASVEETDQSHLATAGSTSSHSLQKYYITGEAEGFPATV
# Test: MCF-7 ER degradation assay (cell based immuno-fluorescence)
# Details: MCF-7 cells; for ER degradation ≥ 90% at 0.3 μM: ER degradation by fulvestrant at 0.3 μM is defined as 100%; for DC50: 18-22 hours incubation, 50% reduction of ERα expression, single experiment or average of two or more, read-out: MCF-7 ER degradation IC50
# In short: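 MCF-7 human ductal carcinoma breast cells were seeded at 3.75×10^4 cells per mL (40 μL per well) in 384 well plates with phenol red free DMEM containing 2 mM L-Glutamine and 5% (v/v) Charcoal/Dextran treated foetal calf serum. After overnight culture, compounds were acoustically dispensed, incubated 18-22 hours, then cells were formaldehyde-fixed and immunostained for ERα.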
SMILES,ER degradation ≥ 90% at 0.3 μM,DC50
"Cc1ncsc1-c1ccc(CNC(=O)[C@@H]2C[C@@H](O)CN2C(=O)[C@@H](NC(=O)COCCOCCCCCOc2cnc([C@@H]3c4[nH]c5ccccc5c4C[C@@H](C)N3CC(C)(F)F)c(F)c2)C(C)(C)C)cc1 [Example 164, (2S,4R)-1-((S)-2-(2-(2-((5-((6-((1S,3R)-2-(2,2-Difluoropropyl)-3-methyl-2,3,4,9-tetrahydro-1H-pyrido[3,4-b]indol-1-yl)-5-fluoropyridin-3-yl)oxy)pentyl)oxy)ethoxy)acetamido)-3,3-dimethylbutanoyl)-4-hydroxy-N-(4-(4-methylthiazol-5-yl)benzyl)pyrrolidine-2-carboxamide]",••,4.2 nM
"Cc1ncsc1-c1ccc(CNC(=O)[C@@H]2C[C@@H](O)CN2C(=O)[C@@H](NC(=O)CCCOCCCCCCOc2cc(F)c([C@@H]3c4[nH]c5ccccc5c4C[C@@H](C)N3CC(C)(C)F)c(F)c2)C(C)(C)C)cc1 [Example 112, (2S,4R)-1-((S)-2-(4-((6-(3,5-difluoro-4-((1R,3R)-2-(2-fluoro-2-methylpropyl)-3-methyl-2,3,4,9-tetrahydro-1H-pyrido[3,4-b]indol-1-yl)phenoxy)hexyl)oxy)butanamido)-3,3-dimethylbutanoyl)-4-hydroxy-N-(4-(4-methylthiazol-5-yl)benzyl)pyrrolidine-2-carboxamide]",••,2.2 nM
"CC(=O)O[C@@H]1C[C@@H](C(=O)NCc2ccc(-c3scnc3C)cc2)N(C(=O)[C@@H](NC(=O)COCCOCCOCCOc2cc(F)c([C@@H]3c4[nH]c5ccccc5c4C[C@@H](C)N3CC(C)(C)F)c(F)c2)C(C)(C)C)C1 [Example 34, (3R,5S)-1-((S)-2-(tert-Butyl)-14-(3,5-difluoro-4-((1R,3R)-2-(2-fluoro-2-methylpropyl)-3-methyl-2,3,4,9-tetrahydro-1H-pyrido[3,4-b]indol-1-yl)phenoxy)-4-oxo-6,9,12-trioxa-3-azatetradecanoyl)-5-((4-(4-methylthiazol-5-yl)benzyl)carbamoyl)pyrrolidin-3-yl Acetate]",•,1 nM
"Cc1ncsc1-c1ccc(CNC(=O)[C@@H]2C[C@@H](O)CN2C(=O)[C@@H](NC(=O)COCCOCCCCOc2cc(F)c([C@@H]3c4[nH]c5ccccc5c4C[C@@H](C)N3CC(C)(C)F)c(F)c2)C(C)(C)C)cc1 [Example 128, (2S,4R)-1-((S)-2-(2-(2-(4-(3,5-Difluoro-4-((1R,3R)-2-(2-fluoro-2-methylpropyl)-3-methyl-2,3,4,9-tetrahydro-1H-pyrido[3,4-b]indol-1-yl)phenoxy)butoxy)ethoxy)acetamido)-3,3-dimethylbutanoyl)-4-hydroxy-N-(4-(4-methylthiazol-5-yl)benzyl)pyrrolidine-2-carboxamide]",••,0.6 nM
"Cc1ncsc1-c1ccc(CNC(=O)[C@@H]2C[C@@H](O)CN2C(=O)[C@@H](NC(=O)COCCCCCCOc2cc(F)c([C@@H]3c4[nH]c5ccccc5c4C[C@@H](C)N3CC(C)(C)F)c(F)c2)C(C)(C)C)cc1 [Example 51, (2S,4R)-1-((S)-2-(2-((6-(3,5-difluoro-4-((1R,3R)-2-(2-fluoro-2-methylpropyl)-3-methyl-2,3,4,9-tetrahydro-1H-pyrido[3,4-b]indol-1-yl)phenoxy)hexyl)oxy)acetamido)-3,3-dimethylbutanoyl)-4-hydroxy-N-(4-(4-methylthiazol-5-yl)benzyl)pyrrolidine-2-carboxamide]",•,6.8 nM
"Cc1ncsc1-c1ccc(CNC(=O)[C@@H]2C[C@@H](O)CN2C(=O)[C@@H](NC(=O)CCCc2ccc(COc3cc(F)c([C@@H]4c5[nH]c6ccccc6c5C[C@@H](C)N4CC(C)(C)F)c(F)c3)nc2)C(C)(C)C)cc1 [Example 141, (2S,4R)-1-((S)-2-(4-(6-((3,5-Difluoro-4-((1R,3R)-2-(2-fluoro-2-methylpropyl)-3-methyl-2,3,4,9-tetrahydro-1H-pyrido[3,4-b]indol-1-yl)phenoxy)methyl)pyridin-3-yl)butanamido)-3,3-dimethylbutanoyl)-4-hydroxy-N-(4-(4-methylthiazol-5-yl)benzyl)pyrrolidine-2-carboxamide]",•,0.9 nM
"Cc1ncsc1-c1ccc(CNC(=O)[C@@H]2C[C@@H](OC(=O)[C@@H]3CCCN3)CN2C(=O)[C@@H](NC(=O)CCCCCCCCCCOc2cc(F)c([C@@H]3c4[nH]c5ccccc5c4C[C@@H](C)N3CC(C)(C)F)c(F)c2)C(C)(C)C)cc1 [Example 33, (3R,5S)-1-((S)-2-(11-(3,5-Difluoro-4-((1R,3R)-2-(2-fluoro-2-methylpropyl)-3-methyl-2,3,4,9-tetrahydro-1H-pyrido[3,4-b]indol-1-yl)phenoxy)undecanamido)-3,3-dimethylbutanoyl)-5-((4-(4-methylthiazol-5-yl)benzyl)carbamoyl)pyrrolidin-3-yl L-prolinate]",••,29 nM
"Cc1ncsc1-c1ccc(CNC(=O)[C@@H]2C[C@@H](O)CN2C(=O)[C@@H](NC(=O)COCc2ccnc(COc3cc(F)c([C@@H]4c5[nH]c6ccccc6c5C[C@@H](C)N4CC(C)(C)F)c(F)c3)c2)C(C)(C)C)cc1 [Example 134, (2S,4R)-1-((S)-2-(2-((2-((3,5-Difluoro-4-((1R,3R)-2-(2-fluoro-2-methylpropyl)-3-methyl-2,3,4,9-tetrahydro-1H-pyrido[3,4-b]indol-1-yl)phenoxy)methyl)pyridin-4-yl)methoxy)acetamido)-3,3-dimethylbutanoyl)-4-hydroxy-N-(4-(4-methylthiazol-5-yl)benzyl)pyrrolidine-2-carboxamide]",•,0.5 nM
"Cc1ncsc1-c1ccc(CNC(=O)[C@@H]2C[C@@H](O)CN2C(=O)[C@@H](NC(=O)CNCCCCCCCCOc2cc(F)c([C@@H]3c4[nH]c5ccccc5c4C[C@@H](C)N3CC(C)(C)F)c(F)c2)C(C)(C)C)cc1 [Example 147, (2S,4R)-1-((S)-2-(2-((8-(3,5-Difluoro-4-((1R,3R)-2-(2-fluoro-2-methylpropyl)-3-methyl-2,3,4,9-tetrahydro-1H-pyrido[3,4-b]indol-1-yl)phenoxy)octyl)amino)acetamido)-3,3-dimethylbutanoyl)-4-hydroxy-N-(4-(4-methylthiazol-5-yl)benzyl)pyrrolidine-2-carboxamide]",•,5.8 nM
"Cc1ncsc1-c1ccc([C@H](C)NC(=O)[C@@H]2C[C@@H](O)CN2C(=O)[C@@H](NC(=O)COCCCOCCCCCOc2cc(F)c([C@@H]3c4[nH]c5ccccc5c4C[C@@H](C)N3CC(C)(C)F)c(F)c2)C(C)(C)C)cc1 [Example 137, (2S,4R)-1-((S)-2-(2-(3-((5-(3,5-Difluoro-4-((R,3R)-2-(2-fluoro-2-methylpropyl)-3-methyl-2,3,4,9-tetrahydro-1H-pyrido[3,4-b]indol-1-yl)phenoxy)pentyl)oxy)propoxy)acetamido)-3,3-dimethylbutanoyl)-4-hydroxy-N—((S)-1-(4-(4-methylthiazol-5-yl)phenyl)ethyl)pyrrolidine-2-carboxamide]",••,0.8 nM
"Cc1ncsc1-c1ccc(CNC(=O)[C@@H]2C[C@@H](O)CN2C(=O)[C@@H](NC(=O)CCCCCOCCCCOc2cc(F)c([C@@H]3c4[nH]c5ccccc5c4C[C@@H](C)N3CC(C)(C)F)c(F)c2)C(C)(C)C)cc1 [Example 109, (2S,4R)-1-((S)-2-(6-(4-(3,5-difluoro-4-((1R,3R)-2-(2-fluoro-2-methylpropyl)-3-methyl-2,3,49-tetrahydro-1H-pyrido[3,4-b]indol-1-yl)phenoxy)butoxy)hexanamido)-3,3-dimethylbutanoyl)-4-hydroxy-N-(4-(4-methylthiazol-5-yl)benzyl)pyrrolidine-2-carboxamide]",••,1 nM
"Cc1ncsc1-c1ccc(CNC(=O)[C@@H]2C[C@@H](O)CN2C(=O)[C@@H](NC(=O)COCCCCCOCCCOc2cc(F)c([C@@H]3c4[nH]c5ccccc5c4C[C@@H](C)N3CC(C)(C)F)c(F)c2)C(C)(C)C)cc1 [Example 136, (2S,4R)-1-((S)-2-(2-((5-(3-(3,5-Difluoro-4-((1R,3R)-2-(2-fluoro-2-methylpropyl)-3-methyl-2,3,4,9-tetrahydro-1H-pyrido[3,4-b]indol-1-yl)phenoxy)propoxy)pentyl)oxy)acetamido)-3,3-dimethylbutanoyl)-4-hydroxy-N-(4-(4-methylthiazol-5-yl)benzyl)pyrrolidine-2-carboxamide]",••,1.1 nM
